# Test results reported in patent US20030129629A1, “Methods and compositions for the identification, assessment, prevention, and therapy of human cancers” (Millennium Pharmaceuticals, Inc., priority 2000, published 2003).
# System: 60 cancer cell lines (NCI 60 cancer cell line series)
# Assay: NCI-DTP in vitro cancer screen, sulforhodamine B (SRB) growth inhibition, 48 hour exposure
# Format: cell-based, human
# Description: Cancer Cell Line Preparation. Sixty cancer cell lines were obtained from the National Cancer Institute Developmental Therapeutics Program (NCI-DTP). Procedures for growing cells and testing compounds have been described previously (Scudiero et al., Cancer Res. 1988, 48:4827-4833; Stinson et al., Anticancer Res.; Myers et al., Electrophoresis 1997, 18:647-653). Cells are plated on day 0 at a density individualized for each cell line so that they will generally be sub-confluent at the end of the assay period. On day 1, a compound is added in the format for a duplicate-well, 5-dose, ten-fold interval dose response study.
# No-drug, no-cell and no-growth controls are included. On day 3 the cells are processed for staining with sulforhodamine B (SRB), which reflects the amount of cell mass present at the end of a 48 hour exposure to the test agent. From dose response curves based on the SRB data, various parameters can be determined. […] More precisely, the quantity used in the calculation to be described is the potency measure −log{GI50}.
# Activity database (A). […] This subset of compounds was selected from the larger 23,000 compound database available from the DTP. The compounds were selected on the basis of their known mechanism of action and chemical structure. The average potency −log{GI50} was extracted from the comma-delimited text files available through the Web at http://www.nci.nih.gov/intra/lmp/jnwbio.html. Subsequently, these −log{GI50} values were inspected manually and classified as indicating either Low, Medium or High sensitivity to each compound.
structure (smiles),measurement,setting,value
NC(=O)NO [Hydroxyurea],"classification of cell line as Low(1), Medium(2), High(3) sensitivity to compound",Breast BT-549 CL5013,1
same,"classification of cell line as Low(1), Medium(2), High(3) sensitivity to compound",Breast HS-578T CL5006,2
same,"classification of cell line as Low(1), Medium(2), High(3) sensitivity to compound",Breast MCF7(I) CL5001,2
same,"classification of cell line as Low(1), Medium(2), High(3) sensitivity to compound",Breast MCF7/ADRr CL5002,2
same,"classification of cell line as Low(1), Medium(2), High(3) sensitivity to compound",Breast MDA-MB-231 CL5005,1
same,"classification of cell line as Low(1), Medium(2), High(3) sensitivity to compound",Breast MDA-MB-435 CL5011,1
same,"classification of cell line as Low(1), Medium(2), High(3) sensitivity to compound",Breast MDA-N CL5012,1
same,"classification of cell line as Low(1), Medium(2), High(3) sensitivity to compound",Breast T-47D CL5014,1
same,"classification of cell line as Low(1), Medium(2), High(3) sensitivity to compound",CNS SF-268 CL12014,2
same,"classification of cell line as Low(1), Medium(2), High(3) sensitivity to compound",CNS SF-295 CL12015,3
same,"classification of cell line as Low(1), Medium(2), High(3) sensitivity to compound",CNS SF-539 CL12016,3
same,"classification of cell line as Low(1), Medium(2), High(3) sensitivity to compound",CNS SNB-19 CL12002,1
same,"classification of cell line as Low(1), Medium(2), High(3) sensitivity to compound",CNS SNB-75(I) CL12005,2
same,"classification of cell line as Low(1), Medium(2), High(3) sensitivity to compound",CNS U251(I) CL12009,2
same,"classification of cell line as Low(1), Medium(2), High(3) sensitivity to compound",Colon COLO-250 CL4010,1
same,"classification of cell line as Low(1), Medium(2), High(3) sensitivity to compound",Colon HCC-2998 CL4002,2
same,"classification of cell line as Low(1), Medium(2), High(3) sensitivity to compound",Colon HCT-15 CL4015,2
same,"classification of cell line as Low(1), Medium(2), High(3) sensitivity to compound",Colon HCT-116 CL4003,2
same,"classification of cell line as Low(1), Medium(2), High(3) sensitivity to compound",Colon HT29(I) CL4001,2
same,"classification of cell line as Low(1), Medium(2), High(3) sensitivity to compound",Colon KM12 CL4017,2
same,"classification of cell line as Low(1), Medium(2), High(3) sensitivity to compound",Colon SW-620 CL4009,2
same,"classification of cell line as Low(1), Medium(2), High(3) sensitivity to compound",Leukemia CCRF-CEM(I) CL7003,3
same,"classification of cell line as Low(1), Medium(2), High(3) sensitivity to compound",Leukemia HL-60(I) CL7008,3
same,"classification of cell line as Low(1), Medium(2), High(3) sensitivity to compound",Leukemia K562(I) CL7005,2
same,"classification of cell line as Low(1), Medium(2), High(3) sensitivity to compound",Leukemia MOLT-4 CL7006,3
same,"classification of cell line as Low(1), Medium(2), High(3) sensitivity to compound",Leukemia RPMI-8226(I) CL7010,3
same,"classification of cell line as Low(1), Medium(2), High(3) sensitivity to compound",Leukemia SR CL7019,3
same,"classification of cell line as Low(1), Medium(2), High(3) sensitivity to compound",Melanoma LOX IMVI CL10001,2
same,"classification of cell line as Low(1), Medium(2), High(3) sensitivity to compound",Melanoma M14 CL10014,2
same,"classification of cell line as Low(1), Medium(2), High(3) sensitivity to compound",Melanoma MALME-3M CL10002,2
same,"classification of cell line as Low(1), Medium(2), High(3) sensitivity to compound",Melanoma SK-MEL-2 CL10005,1
same,"classification of cell line as Low(1), Medium(2), High(3) sensitivity to compound",Melanoma SK-MEL-5 CL10007,2
same,"classification of cell line as Low(1), Medium(2), High(3) sensitivity to compound",Melanoma SK-MEL-28 CL10008,1
same,"classification of cell line as Low(1), Medium(2), High(3) sensitivity to compound",Melanoma UACC-62 CL10020,3
same,"classification of cell line as Low(1), Medium(2), High(3) sensitivity to compound",Melanoma UACC-257 CL10021,1
same,"classification of cell line as Low(1), Medium(2), High(3) sensitivity to compound",NSCLC A549/ATCC CL1004,2
same,"classification of cell line as Low(1), Medium(2), High(3) sensitivity to compound",NSCLC EKVX CL1008,1
same,"classification of cell line as Low(1), Medium(2), High(3) sensitivity to compound",NSCLC HOP-62 CL1026,2
same,"classification of cell line as Low(1), Medium(2), High(3) sensitivity to compound",NSCLC HOP-92 CL1029,2
same,sensitivity classification Low(1)/Medium(2)/High(3),NSCLC NCI-H23(I) CL1001,2
same,"classification of cell line as Low(1), Medium(2), High(3) sensitivity to compound",NSCLC NCI-H226 CL1013,2
same,sensitivity classification Low(1)/Medium(2)/High(3),NSCLC NCI-H332M CL1017,1
same,sensitivity classification Low(1)/Medium(2)/High(3),NSCLC NCI-H460 CL1021,3
same,sensitivity classification Low(1)/Medium(2)/High(3),NSCLC NCI-H522 CL1003,2
same,sensitivity classification Low(1)/Medium(2)/High(3),Ovarian IGROV1 CL6010,2
same,sensitivity classification Low(1)/Medium(2)/High(3),Ovarian OVCAR-3 CL6001,2
same,sensitivity classification Low(1)/Medium(2)/High(3),Ovarian OVCAR-4 CL6002,1
same,sensitivity classification Low(1)/Medium(2)/High(3),Ovarian OVCAR-5 CL6003,2
same,sensitivity classification Low(1)/Medium(2)/High(3),Ovarian OVCAR-8 CL6005,2
same,sensitivity classification Low(1)/Medium(2)/High(3),Ovarian SK-OV-3 CL6011,1
same,sensitivity classification Low(1)/Medium(2)/High(3),Prostate DU-145 CL11003,2
same,sensitivity classification Low(1)/Medium(2)/High(3),Prostate PC-3(I) CL11001,2
same,sensitivity classification Low(1)/Medium(2)/High(3),Renal 786-0 CL9018,2
same,sensitivity classification Low(1)/Medium(2)/High(3),Renal A498 CL9013,2
same,sensitivity classification Low(1)/Medium(2)/High(3),Renal ACHN CL9023,3
same,sensitivity classification Low(1)/Medium(2)/High(3),Renal CAKI-1 CL9015,3
same,sensitivity classification Low(1)/Medium(2)/High(3),Renal RXF-393 CL9016,2
same,sensitivity classification Low(1)/Medium(2)/High(3),Renal SN12C CL9008,2
same,sensitivity classification Low(1)/Medium(2)/High(3),Renal TK10 CL9024,1
same,sensitivity classification Low(1)/Medium(2)/High(3),Renal UO-31 CL9004,2
